Results reported in patent US11053226B2, “KRAS G12C inhibitors and methods of using the same” (Amgen Inc., priority 2018, dated 2021).
Like-named read-outs stand apart in the source and are kept apart here.

Tests used:
[1] = molecular target: GDP-bound KRAS protein (aa 1-169), containing both G12C and C118A amino acid substitutions (Homo sapiens (Human), UniProt P01116, C118A/G12C); experiment: Coupled Nucleotide Exchange Assay; type: biochemical
Experimental: (§1) For compounds in Table 9, the following assay conditions were employed:
Coupled Nucleotide Exchange Assay:
The assay plates were then read on a PerkinElmer EnVision Multilabel Reader, using AlphaScreen® technology, and data were analyzed using a 4-parameter logistic model to calculate IC50 values.

[2] = system: Phosphorylation of ERK1/2 in MIA PaCa-2 cells; experiment: Phospho-ERK1/2 MSD Assay; type: cell-based; settings: MiaPaCa-2 cells
Experimental: as §1
Phospho-ERK1/2 MSD Assay:
Sixteen hours prior to compound treatment, MIA PaCa-2 cells were seeded in 96-well cell culture plates at a density of 25,000 cells/well and incubated at 37° C., 5% CO2. […] Following compound treatment, cells were stimulated with 10 ng/mL EGF (Roche 11376454001) for 10 min, washed with ice-cold Dulbecco's phosphate-buffered saline, no Ca^2+ or Mg^2+ (ThermoFisher Scientific 14190144), and then lysed in RIPA buffer (50 mM Tris-HCl pH 7.5, 1% Igepal, 0.5% sodium deoxycholate, 150 mM NaCl, and 0.5% sodium dodecyl sulfate) containing protease inhibitors (Roche 4693132001) and phosphatase inhibitors (Roche 4906837001). […] Assay plates were read on a Meso Scale Discovery Sector Imager 6000, and data were analyzed using a 4-parameter logistic model to calculate IC50 values.

[3] = system: Phosphorylation of ERK1/2 in A549 cells; experiment: Phospho-ERK1/2 MSD Assay (A549); type: cell-based
[4] = read-out: Coupled Exchange IC50 (2 h), 2 h compound pre-incubation
[5] = Homo sapiens, MIA PaCa-2, 4 h, read-out: pERK IC50 (4 h, MiaPaCa-2), 4 h compound treatment
[6] = Homo sapiens, A549, 4 h, read-out: pERK IC50 (4 h, A549), 4 h compound treatment
[7] = read-out: Coupled Exchange IC50 (20 h), 20 h compound pre-incubation
[8] = Homo sapiens, MIA PaCa-2, read-out: pERK IC50 (4 h), 4 h compound treatment
[9] = Homo sapiens, read-out: pERK IC50 (4 h), 4 h compound treatment
[10] = read-out: Coupled Exchange IC50 (5 min), 5 min compound pre-incubation

Sequence of GDP-bound KRAS protein (aa 1-169), containing both G12C and C118A amino acid substitutions (P01116 other isoform, or with tags, fused parts or gaps G12C/C118A): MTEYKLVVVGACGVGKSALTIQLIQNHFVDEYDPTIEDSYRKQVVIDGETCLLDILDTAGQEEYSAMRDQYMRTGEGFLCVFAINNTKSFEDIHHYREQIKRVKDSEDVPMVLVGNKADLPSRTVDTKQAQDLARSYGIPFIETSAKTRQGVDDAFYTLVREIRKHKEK

Structure (SMILES) | IC50 [1, 4] [µM] | IC50 [2, 5] [µM] | IC50 [3, 6] [µM] | IC50 [1, 7] [µM] | also measured
C=CC(=O)N1CC(NC(=O)Cn2c(C)c(C(=O)N3CCc4ccccc4C3CC)c3cc(Br)cc(C)c32)C1 (stereo not drawn) [Example 59] | 0.81 | 6.84 | 45.9 |  | 
C=CC(=O)N1CC(NC(=O)Cn2cc(-c3cccc4ccccc34)c3cc(Br)cc(C)c32)C1 [Example 110] | 4.39 |  |  | 1.2 | IC50 [2, 8]: 24.9 µM; IC50 [3, 9]: 42.1 µM
C=CC(=O)N1CC(NC(=O)Cn2c(C3CC3)c(C(=O)N3CCN(c4ccc(C#N)cn4)CC3)c3cc(Cl)cc(C)c32)C1 [Example 14] | 0.58 | 1.7 | > 100 |  | 
C=CC(=O)N1CC(NC(=O)Cn2c(C)c(-c3ccccc3N3CCCC3)c3cc(Cl)ccc32)C1 [Example 5-4, 2-(5-Chloro-2-methyl-3-(2-(1-pyrrolidinyl)phenyl)-1H-indol-1-yl)-N-(1-(2-propenoyl)-3-azetidinyl)acetamide] | 0.38 |  |  |  | IC50 [2, 8]: 5.49 µM; IC50 [3, 9]: > 100 µM
C=CC(=O)N1CC(NC(=O)Cn2c(C)c(-c3cncnc3C3CC3)c3cc(Cl)ccc32)C1 [Example 30] | 2.32 |  |  |  | IC50 [2, 8]: 2.68 µM; IC50 [3, 9]: > 100 µM
C=CC(=O)N1CC(NC(=O)Cn2c(C)c(-c3ccccc3CC)c3cc(Cl)ccc32)C1 [Example 54] | 0.65 |  |  | 0.2 | IC50 [1, 10]: 4.37 µM; IC50 [2, 8]: 5.88 µM; IC50 [3, 9]: > 33.3 µM
C=CC(=O)N1CC(NC(=O)Cn2c(C)c(-c3cncnc3C(C)C)c3cc(Cl)ccc32)C1 [Example 5-2, 2-(5-Chloro-2-methyl-3-(4-(2-propanyl)-5-pyrimidinyl)-1H-indol-1-yl)-N-(1-(2-propenoyl)-3-azetidinyl)acetamide] | 1.05 |  |  |  | IC50 [2, 8]: 1.49 µM; IC50 [3, 9]: > 100 µM
C=CC(=O)N1CC(NC(=O)Cn2c(CC)c(C(=O)N3CCc4c(cccc4OC)C3)c3cc(Cl)cc(C)c32)C1 [Example 1-2, 2-(5-Chloro-2-ethyl-3-((5-methoxy-3,4-dihydro-2(1H)-isoquinolinyl)carbonyl)-7-methyl-1H-indol-1-yl)-N-(1-(2-propenoyl)-3-azetidinyl)acetamide] | 0.06 | 0.13 | > 100 |  | 
COc1cccc2c1CCN(C(=O)c1cn(CC(=O)NC3CN(C(=O)/C=C/CN(C)C)C3)c3ccc(Br)cc13)C2 [Example 149] | 3.6 | 50.7 | > 100 | 0.68 | 
C=CC(=O)N1CC(NC(=O)Cn2c3ccc(Br)cc3c3c(Cl)ccnc32)C1 [Example 75] | 3.73 |  |  | 0.43 | IC50 [2, 8]: 11.3 µM; IC50 [3, 9]: > 100 µM
C=CC(=O)N1CC(NC(=O)Cn2c(C)c(C(=O)N3CCc4c(cccc4OC)C3)c3cc([N+](=O)[O-])ccc32)C1 [Example 17] | 1.22 |  |  | 0.3 | IC50 ([2]; read-out: pERK IC50 (4 h, MiaPaCa-2), 4 h compound treatment): 1.83 µM; IC50 ([3]; read-out: pERK IC50 (4 h, A549), 4 h compound treatment): > 100 µM
C=CC(=O)N1CC(NC(=O)Cn2cc(-c3ccccc3-c3ccccc3)c3cc(Cl)ccc32)C1 [Example 112] | 2.36 |  |  | 0.71 | IC50 [1, 10]: 3.95 µM; IC50 [2, 8]: 25.9 µM; IC50 [3, 9]: > 100 µM
C=CC(=O)N1CC(NC(=O)Cn2c(C)c(C(=O)N3Cc4ccccc4CC3C)c3cc(Br)cc(C)c32)C1 (stereo not drawn) [Example 39] | 0.33 | 3.35 | 60.3 |  | 
C=CC(=O)N1CC(NC(=O)Cn2c(C)c(C(=O)N3CCc4c(cccc4OC)C3)c3cc(Br)ccc32)C1 [Example 13] | 0.3 | 1.68 | > 100 | 0.11 | 
C=CC(=O)N1CC(NC(=O)Cn2c(C)c(-c3ccccc3C3CC3)c3cc(Cl)ccc32)C1 [Example 36] | 0.71 |  |  | 0.2 | IC50 [2, 8]: 3.31 µM; IC50 [3, 9]: > 33.3 µM
C=CC(=O)N1CC(NC(=O)Cn2cc(-c3ccc(F)cc3F)c3cc(Br)ccc32)C1 [Example 137] | 6.9 |  |  | 1.13 | IC50 [2, 8]: 40.4 µM; IC50 [3, 9]: 16.5 µM
C=CC(=O)N1CC(NC(=O)Cn2c(C)c(C(=O)N3CCc4c(C)cc(Br)cc4C3)c3cc(Br)ccc32)C1 [Example 51] | 0.75 | 4.82 | > 100 | 0.18 | 
C=CC(=O)N1CC(NC(=O)Cn2cc(C(=O)N3CCc4c(C)cccc4C3)c3cc(Cl)cc(Cl)c32)C1 [Example 74] | 0.22 | 11.1 | > 100 | 0.17 | 

Structure (SMILES) | IC50 [1, 4] [µM] | IC50 [2, 5] [µM] | IC50 [3, 6] [µM] | IC50 [1, 7] [µM] | also measured
C=CC(=O)N1CC(N(C)C(=O)Cn2c(C)c(C(=O)N3CCN(c4ccc(C#N)cn4)C[C@H]3C)c3cc(Br)ccc32)C1 [Example 8] | 0.22 | 1.56 | > 100 |  | 
C=CC(=O)N1CC(NC(=O)Cn2cc(C(=O)NCCC(=O)Nc3cc(C)ccc3C)c3cc(Br)ccc32)C1 [Example 169] |  | > 100 | > 100 |  | 
C=CC(=O)N1CC(NC(=O)Cn2cc(C(=O)NCCc3nccs3)c3cc(Br)ccc32)C1 [Example 123] |  | 32.4 | > 100 |  | 
C=CC(=O)N1CC(NC(=O)Cn2c(C)c(C(=O)N3CCN(c4ccc(Br)cn4)CC3)c3cc(Br)ccc32)C1 [Example 34] |  | 3.06 | > 100 |  | 
C=CC(=O)N1CC(NC(=O)Cn2cc(C(=O)N3CCc4c(C#N)cccc4C3)c3cc(Br)ccc32)C1 [Example 134] |  | 38 | > 100 |  | 
C=CC(=O)N1CC(NC(=O)Cn2cc(C(=O)NCCOc3ccccc3C)c3cc(Br)ccc32)C1 [Example 156] |  | 53.4 | > 100 |  | 
C=CC(=O)N1CC(N(C)C(=O)Cn2c(C)c(C(=O)N3CCN(c4ccc(C)cn4)CC3)c3cc(Br)ccc32)C1 [Example 47] |  | 4.16 | > 100 |  | 
C=CC(=O)N1CC(NC(=O)Cn2cc(C(=O)NCCCc3nc(C)cs3)c3cc(Br)ccc32)C1 [Example 172] |  | > 100 | > 100 |  | 
C=CC(=O)N1CC(NC(=O)Cn2cc(C(=O)N3CCN(c4ncccc4C)CC3)c3cc(Br)ccc32)C1 [Example 61] |  | 7.06 | > 33.3 |  | 
C=CC(=O)N1CC(NC(=O)C(C)n2c(C)c(C(=O)N3CCc4c(cccc4OC)C3)c3cc(Cl)ccc32)C1 (stereo not drawn) [Example 126] |  | 33.9 | 48.4 |  | 
C=CC(=O)N1CC(NC(=O)Cn2cc(C(=O)N3CCOC(c4ccccc4)C3)c3cc(Br)ccc32)C1 (stereo not drawn) [Example 138] |  | 40.5 | > 100 |  | 
C=CC(=O)N1CC(N2CC[C@@H](n3c(C)c(C(=O)N4CCc5c(cccc5OC)C4)c4cc(Br)ccc43)C2=O)C1 [Example 50] |  | 4.81 | > 33.3 |  | 
C=CC(=O)N1CC(NC(=O)Cn2c(C)c(C(=O)N3CCN(c4ccc([N+](=O)[O-])cn4)CC3)c3cc(Br)ccc32)C1 [Example 46] |  | 4.08 | > 100 |  | 
C=CC(=O)N1CC(NC(=O)Cn2cc(C(=O)On3nnc4cccnc43)c3cc(Br)ccc32)C1 [Example 175] |  | > 100 | > 100 |  | 
C=CC(=O)N1CC(NC(=O)Cn2c(C)c(C(=O)N3CCOC(C)(C)C3)c3cc(Br)ccc32)C1 [Example 64] |  | 7.74 | > 100 |  | 
C=CC(=O)N1CC(NC(=O)Cn2cc(C(=O)NCCC(=O)Nc3ccccc3CC)c3cc(Br)ccc32)C1 [Example 167] |  | > 100 | > 100 |  | 
C=CC(=O)N1CC(NC(=O)Cn2c(C)c(C(=O)N3CCN(c4ccc(C(F)(F)F)cn4)CC3)c3cc(Br)ccc32)C1 [Example 40] |  | 3.42 | 44.6 |  | 
